From US8658649B2, “Kinase inhibitor” (Sanofi, priority 2006, dated 2014)

System: Collagen-induced arthritis (CIA)
Experiment: Rat collagen induced arthritis, combination dosing with Methotrexate
Format: in vivo
Procedure: Immunization and Challenge: Female Lewis rats were immunized on day 0 and challenged on day 7 with cII from bovine nasal mixed with Freund's incomplete adjuvant at a final collagen concentration of 1.0 mg/ml. The animals were injected at the base of the tail with 400 μg of cII. Combination Dosing Regimen: Rats were dosed with the compound of Formula I (3.0 and 10 mg/kg, p.o., bi.d.) or Methotrexate (MTX, 0.1 and 0.2 mg/kg, p.o., q.d.) as monotherapy or in combinations consisting of each dose of the compound of Formula I with each dose of MTX starting on day 6 and continuing through day 21. Joint Pathology Ankle joint swelling was measured to the nearest 0.01 mm by using electronic digital calipers. Measurements were recorded 7 times throughout the study starting on day 6 and ending on day 21. Body weights were recorded on the same days. On day 21, hind paws were removed at the hairline just above the ankle and fixed in 10% neutral buffered formalin. MicroCT analysis: Ankle joints were examined using a cone-beam μCT scanner. A scout view scan was obtained first for selection of the examination volume of the specimens, followed by positioning, measurement and computational reconstruction. In ankle joints, the ratio of bone surface to bone volume, describing the complexity of bone surface in a certain volume, was analyzed. Statistical Analysis For joint swelling/inflammation, data were analyzed using Everstat v.5 software and a 2-way repeated measure ANOVA with Dunnett's post test. MicroCT data were analyzed by Everstat using a 1-way ANOVA and Newman-Keuls multiple comparison test.

CN(Cc1cnc2nc(N)nc(N)c2n1)c1ccc(C(=O)N[C@@H](CCC(=O)O)C(=O)O)cc1 [MTX, Methotrexate, reference compound]
bone erosion, MicroCT (MTX 0.1 mg/kg monotherapy): effect was not seen
bone erosion, MicroCT (MTX 0.2 mg/kg po qd monotherapy): significant decrease in bone erosion
